The assay addresses recombinant HCV RNA-dependent RNA polymerase (NS5B protein) (Hepatitis C virus genotype 1b, UniProt P26663). Briefly: biochemical. On the set-up: species or system HCV-Bk strain.

Chain of recombinant HCV RNA-dependent RNA polymerase (NS5B protein) (P26663 2420-3010 limits assumed): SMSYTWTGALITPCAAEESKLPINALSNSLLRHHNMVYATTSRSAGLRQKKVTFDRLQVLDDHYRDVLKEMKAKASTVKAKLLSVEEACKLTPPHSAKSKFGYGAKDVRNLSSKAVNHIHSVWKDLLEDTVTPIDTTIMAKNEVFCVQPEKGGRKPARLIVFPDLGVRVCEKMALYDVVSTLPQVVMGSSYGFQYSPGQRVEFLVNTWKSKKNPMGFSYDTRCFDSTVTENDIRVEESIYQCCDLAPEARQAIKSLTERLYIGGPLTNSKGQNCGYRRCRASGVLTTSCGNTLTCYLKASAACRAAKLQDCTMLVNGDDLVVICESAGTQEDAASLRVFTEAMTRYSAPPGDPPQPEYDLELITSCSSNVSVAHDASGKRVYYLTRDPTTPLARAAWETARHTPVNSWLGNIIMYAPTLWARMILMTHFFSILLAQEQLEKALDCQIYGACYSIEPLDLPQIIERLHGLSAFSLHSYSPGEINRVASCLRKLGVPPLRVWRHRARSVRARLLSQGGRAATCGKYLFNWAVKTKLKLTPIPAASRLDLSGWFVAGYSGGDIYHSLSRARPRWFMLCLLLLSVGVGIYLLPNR

A word on the IC50: it is the midpoint of a concentration-inhibition curve. Take `CC1CCC(C(=O)N(CC2CCCCN2)c2cc(-c3ccccc3)sc2C(=O)O)CC1` (stereo not shown) [Compound 2, 2-{[(2-carboxy-5-phenyl-thiophen-3-yl)-(4-methyl-cyclohexanecarbonyl)-amino]-methyl}-piperidinium; trifluoro-acetate]: the IC50 is < 5 µM. The result for `CCC(C)C(CN)N(C(=O)c1ccc(Cl)cc1Cl)c1cc(-c2ccccc2)sc1C(=O)O` (stereo not shown) [Compound 20, 3-[(1-aminomethyl-2-methyl-butyl)-(2,4-dichloro-benzoyl)-amino]-5-phenyl-thiophene-2-carboxylic acid] reads 5 to 20 µM; that for `C[C@H]1CC[C@H](C(=O)N(c2cc(-c3ccccc3)sc2C(=O)O)[C@H]2CCC[C@H](O)C2)CC1` (stereo in doubt) [Compound 89, 3-[(3-hydroxy-cyclohexyl)-(4-methyl-cyclohexanecarbonyl)-amino]-5-phenyl-thiophene-2-carboxylic acid], < 5 µM; that for `CNC(=O)N1CCC(N(C(=O)C2CCC(C)CC2)c2cc(-c3ccccc3)sc2C(=O)O)CC1` (stereo not shown) [Compound 71, 3-[(1-methylcarbamoyl-piperidin-4-yl)-(4-methyl-cyclohexanecarbonyl)-amino]-5-phenyl-thiophene-2-carboxylic acid], < 5 µM.

Consider `CC(C)N(C(=O)[C@H]1CC[C@H](C)CO1)c1cc(-c2ccccc2)sc1C(=O)O` (relative stereo) [Compound 27, 3-[Isopropyl-(trans-5-methyl-tetrahydro-pyran-2-carbonyl)-amino]-5-phenyl-thiophene-2-carboxylic acid], for which the IC50 was < 5 µM. For `CC1CCC(C(=O)N(c2cc(-c3ccc(Cl)cc3)sc2C(=O)O)C2CCC(O)CC2)CC1` (stereo not shown) [Compound 59, 5-(4-chloro-phenyl)-3-[(4-hydroxy-cyclohexyl)-(4-methyl-cyclohexanecarbonyl)-amino]-thiophene-2-carboxylic acid], the IC50 is < 5 µM. Then `CC1CCC(F)(C(=O)N(c2cc(-c3ccccc3)sc2C(=O)O)C(C)C)CC1` (stereo not drawn) [Compound 9, Trans-3-[(1-Fluoro-4-methyl-cyclohexanecarbonyl)-isopropyl-amino]-5-phenyl-thiophene-2-carboxylic acid], with < 5 µM.

The values above are taken from US8829030B2 (priority 2002, dated 2014).
